According to paper PMC7724564 (Science Bulletin, 2020):

Target: human angiotensin-converting enzyme 2 (ACE2) (Homo sapiens, UniProt Q9BYF1)
Assay: biolayer interferometry
Format: binding

Chain of human angiotensin-converting enzyme 2 (ACE2) (Q9BYF1 18-740): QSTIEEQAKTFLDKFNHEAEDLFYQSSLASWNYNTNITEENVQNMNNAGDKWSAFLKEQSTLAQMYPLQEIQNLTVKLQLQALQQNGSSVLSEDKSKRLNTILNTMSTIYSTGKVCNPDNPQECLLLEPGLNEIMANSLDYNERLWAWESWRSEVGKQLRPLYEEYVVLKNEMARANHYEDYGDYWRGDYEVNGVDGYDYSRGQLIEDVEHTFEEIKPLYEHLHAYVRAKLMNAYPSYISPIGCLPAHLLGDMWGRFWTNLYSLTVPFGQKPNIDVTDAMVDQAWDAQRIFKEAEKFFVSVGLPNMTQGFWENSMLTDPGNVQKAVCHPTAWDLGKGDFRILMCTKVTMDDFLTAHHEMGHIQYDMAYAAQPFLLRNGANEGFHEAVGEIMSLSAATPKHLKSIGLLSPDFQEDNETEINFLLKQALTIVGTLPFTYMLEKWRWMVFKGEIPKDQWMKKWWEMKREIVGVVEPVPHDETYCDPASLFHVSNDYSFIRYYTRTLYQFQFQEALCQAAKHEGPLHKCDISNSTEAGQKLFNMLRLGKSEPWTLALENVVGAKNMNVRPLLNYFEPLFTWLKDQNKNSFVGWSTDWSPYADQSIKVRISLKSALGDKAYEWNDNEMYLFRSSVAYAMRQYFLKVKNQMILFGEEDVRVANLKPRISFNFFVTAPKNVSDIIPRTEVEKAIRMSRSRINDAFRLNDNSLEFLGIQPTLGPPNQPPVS

C=CC1=C(C)c2cc3[nH]c(cc4nc(cc5[nH]c(cc1n2)c(C)c5CCC(=O)O)C(CCC(=O)O)=C4C)c(C)c3C=C [protoporphyrin IX]
Kd: 39 µM
